Measured values from ChEMBL document CHEMBL1201862, “PubChem BioAssay data set” (2004).
Activity calls are given as the source filed them.

molecular target: Cytochrome P450 2C19 (Homo sapiens, UniProt P33261); experiment: Cytochrome panel assay with activity outcomes. Panel member name: p450-cyp2c19 Compounds with AC50 equal or less than 10 uM are considered active; type: functional; conditions: read-out: AC50
Sequence (P33261 whole entry): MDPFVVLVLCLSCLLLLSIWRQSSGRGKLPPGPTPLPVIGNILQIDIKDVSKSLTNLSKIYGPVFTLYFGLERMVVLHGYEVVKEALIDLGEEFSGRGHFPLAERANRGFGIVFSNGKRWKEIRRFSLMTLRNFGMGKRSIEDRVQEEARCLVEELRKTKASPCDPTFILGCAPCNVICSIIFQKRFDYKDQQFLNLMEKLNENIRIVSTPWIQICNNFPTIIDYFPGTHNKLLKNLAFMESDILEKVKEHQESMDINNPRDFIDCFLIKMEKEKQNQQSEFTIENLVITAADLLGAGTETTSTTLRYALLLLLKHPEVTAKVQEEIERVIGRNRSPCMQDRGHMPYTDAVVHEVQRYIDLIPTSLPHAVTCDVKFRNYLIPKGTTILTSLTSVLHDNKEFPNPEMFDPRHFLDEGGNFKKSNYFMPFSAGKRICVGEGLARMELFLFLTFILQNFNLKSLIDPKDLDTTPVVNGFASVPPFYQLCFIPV

Question: With `CCC12C=CCN3CCC4(c5cc(Br)c(OC)cc5N(C)C4C(O)(C(=O)OC)C1OC(C)=O)C32` (stereo unspecified) as the compound, how does the AC50 read?
Answer: 11.2 µM (inconclusive)

Question: Which AC50 does the source give for `CC1CCCC(NC(=O)C2CCN(S(=O)(=O)N3CCC4(CC3)OCCO4)CC2)C1C` (stereo unspecified) here?
Answer: 6.31 µM (inconclusive)

Question: Which AC50 does the source give for `CCOc1ccc(-c2nnc3ccc(SCC(=O)NCc4ccco4)nn23)cc1` here?
Answer: 1 µM (inconclusive)

Question: For `CC(C)Sc1cc(N2CCOCC2)nc(-c2ccc(Cl)cc2)n1`, which AC50 is on record?
Answer: 11.2 µM (inconclusive)

Question: For `COc1ccc(/C=N/NC(=O)CCc2ccccc2)cc1O`, which AC50 is on record?
Answer: 15.8 µM (inconclusive)

test system: Streptococcus; experiment: Group A Streptococcus viability loss, dose response, counter-screen for streptokinase expression inhibitor project, luminescence, BacTiterGlo (AID 1915); type: functional, organism-based; conditions: not given;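 note: potency for reduction of bacterial viability or growth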

Question: With `CCCCNC(=O)c1cn(CC(C)C)c(=O)c2c1c1ccccc1n2C` as the compound, how does the EC50 read?
Answer: > 150 µM (not active)

Question: With `CC(C)(C)c1cc(C(=O)Nc2ccc(F)cc2)n(Cc2ccc(F)cc2)n1` as the compound, how does the EC50 read?
Answer: 10.3 µM (active)

Question: For `COc1ccc(CNCC(O)(c2ccc(Cl)cc2)c2ccc(Cl)cc2)cc1`, which EC50 is on record?
Answer: 17.9 µM (active)

Question: With `NC(=O)c1cc(C(=O)Cc2ccccc2)c[nH]1` as the compound, how does the EC50 read?
Answer: > 150 µM (not active)

Question: With `COC(=O)c1ccc(CN(c2ccc(C(=O)O)c(O)c2)S(=O)(=O)c2ccc(Cl)c([N+](=O)[O-])c2)cc1` as the compound, how does the EC50 read?
Answer: 5.96 µM (active)

Question: Which EC50 does the source give for `COc1cc(C(=O)NC(=S)Nc2ccc(Cc3ccncc3)cc2)cc(OC)c1OC` here?
Answer: 25 µM (active)

Question: With `COc1ccccc1N1CCN(C(=O)/C=C/c2c(Cl)nc3ccccn23)CC1` as the compound, how does the EC50 read?
Answer: 12.7 µM (active)

Question: Which EC50 does the source give for `Cc1ccccc1C(=O)Oc1cccc(Nc2ncnc3ccccc23)c1` here?
Answer: > 150 µM (not active)

molecular target: Cytochrome P450 3A4 (Homo sapiens, UniProt P08684); conditions: not given;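 note: CYP3A4 tested as one member of a cytochrome P450 panel screen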
Sequence (P08684 whole entry): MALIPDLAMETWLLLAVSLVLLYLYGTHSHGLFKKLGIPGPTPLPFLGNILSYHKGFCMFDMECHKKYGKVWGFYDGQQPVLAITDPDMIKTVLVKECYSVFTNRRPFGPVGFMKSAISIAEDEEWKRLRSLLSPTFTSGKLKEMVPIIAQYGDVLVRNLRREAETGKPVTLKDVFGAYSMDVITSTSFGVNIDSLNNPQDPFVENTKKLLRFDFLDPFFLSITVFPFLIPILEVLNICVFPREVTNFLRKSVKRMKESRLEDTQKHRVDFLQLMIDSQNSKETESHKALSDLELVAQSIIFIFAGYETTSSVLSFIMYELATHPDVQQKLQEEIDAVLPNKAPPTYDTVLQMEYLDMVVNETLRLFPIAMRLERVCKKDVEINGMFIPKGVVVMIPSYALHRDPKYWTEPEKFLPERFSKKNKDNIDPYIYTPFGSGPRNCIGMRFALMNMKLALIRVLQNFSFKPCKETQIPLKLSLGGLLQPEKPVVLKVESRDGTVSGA

Question: With `C[C@]1(C2CCCC2)Cc2cc(OCC(=O)O)c(Cl)c(Cl)c2C1=O` as the compound, how does the AC50 read?
Answer: 12.6 µM (inconclusive)

Question: With `COc1ccccc1-c1nccc(NCc2cnc(C)cn2)n1` as the compound, how does the AC50 read?
Answer: 39.8 µM (inconclusive)

Question: For `Cl/C(=N\c1cccc2ccccc12)N(c1ccccc1)c1ccccc1`, which AC50 is on record?
Answer: 3.98 µM (inconclusive)

Question: For `O=C(Nc1ccc(Cl)cc1C(=O)c1ccccc1)c1ccco1`, which AC50 is on record?
Answer: 22.4 µM (inconclusive)

Question: With `CCC12C=CCN3CCC4(c5cc(Br)c(OC)cc5N(C)C4C(O)(C(=O)OC)C1OC(C)=O)C32` (stereo unspecified) as the compound, how does the AC50 read?
Answer: 39.8 µM (inconclusive)

Question: Which AC50 does the source give for `CN1CCN(c2ncc3nc(-c4cccs4)c(=O)n(C[C@H]4CCCO4)c3n2)CC1` here?
Answer: 10 µM (inconclusive)

Question: With `NNC(=O)c1nn(-c2ccc(Cl)cc2)ccc1=O` as the compound, how does the AC50 read?
Answer: 25.1 µM (inconclusive)

Question: With `COc1ccc(NC(=O)CSc2nncn2C)c([N+](=O)[O-])c1` as the compound, how does the AC50 read?
Answer: 22.4 µM (inconclusive)

Question: For `O=C1[C@H]2[C@H]3[C@H](O)[C@H](O)C/C(=N/OC[C@@H](O)COCc4ccco4)[C@H]3CC[C@@H]2C(=O)N1C1CCCCC1`, which AC50 is on record?
Answer: 3.98 µM (inconclusive)

Question: Which AC50 does the source give for `CC1CCCC(NC(=O)C2CCN(S(=O)(=O)N3CCC4(CC3)OCCO4)CC2)C1C` (stereo unspecified) here?
Answer: 14.1 µM (inconclusive)

Question: For `Cc1ccccc1NS(=O)(=O)c1ccc2ncc(C(=O)N(C)Cc3ccco3)c(O)c2c1`, which AC50 is on record?
Answer: 0.794 µM (inconclusive)

Question: For `Cc1cccc(NC(=S)c2nc3ccccc3s2)c1`, which AC50 is on record?
Answer: 3.98 µM (inconclusive)

Question: With `CCOc1ccc(-c2nnc3ccc(SCC(=O)NCc4ccco4)nn23)cc1` as the compound, how does the AC50 read?
Answer: 7.94 µM (inconclusive)

Question: With `CC(C)Sc1cc(N2CCOCC2)nc(-c2ccc(Cl)cc2)n1` as the compound, how does the AC50 read?
Answer: 17.8 µM (inconclusive)

Question: For `Cc1ccc(CCN2CC(C(=O)N3CCC4(CC3)OCCO4)CC2=O)cc1` (stereo unspecified), which AC50 is on record?
Answer: 17.8 µM (inconclusive)

Question: With `COc1ccc(/C=N/NC(=O)CCc2ccccc2)cc1O` as the compound, how does the AC50 read?
Answer: 22.4 µM (inconclusive)

molecular target: Cytochrome P450 2D6 (Homo sapiens, UniProt P10635); conditions: not given;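 note: CYP2D6 member of a cytochrome P450 panel assay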
Sequence (P10635 whole entry): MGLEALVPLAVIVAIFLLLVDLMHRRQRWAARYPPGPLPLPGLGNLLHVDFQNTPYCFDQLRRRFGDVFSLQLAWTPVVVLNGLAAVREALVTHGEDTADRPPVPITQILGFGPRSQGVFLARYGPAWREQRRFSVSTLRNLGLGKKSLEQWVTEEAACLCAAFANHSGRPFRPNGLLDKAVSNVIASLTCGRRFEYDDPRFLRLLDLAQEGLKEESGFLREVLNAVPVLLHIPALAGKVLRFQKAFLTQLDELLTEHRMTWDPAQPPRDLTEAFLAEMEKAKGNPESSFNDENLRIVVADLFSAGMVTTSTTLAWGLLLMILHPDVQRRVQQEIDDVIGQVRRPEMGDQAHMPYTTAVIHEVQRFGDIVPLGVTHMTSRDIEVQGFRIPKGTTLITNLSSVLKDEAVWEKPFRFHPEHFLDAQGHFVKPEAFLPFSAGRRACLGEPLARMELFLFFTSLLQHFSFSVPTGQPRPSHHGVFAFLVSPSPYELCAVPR

Question: For `Cc1ccccc1NS(=O)(=O)c1ccc2ncc(C(=O)N(C)Cc3ccco3)c(O)c2c1`, which AC50 is on record?
Answer: 17.8 µM (inconclusive)

Question: Which AC50 does the source give for `Cc1cccc(NC(=S)c2nc3ccccc3s2)c1` here?
Answer: 35.5 µM (inconclusive)

molecular target: Cytochrome P450 2C9 (Homo sapiens, UniProt P11712); conditions: not given
Sequence (P11712 whole entry): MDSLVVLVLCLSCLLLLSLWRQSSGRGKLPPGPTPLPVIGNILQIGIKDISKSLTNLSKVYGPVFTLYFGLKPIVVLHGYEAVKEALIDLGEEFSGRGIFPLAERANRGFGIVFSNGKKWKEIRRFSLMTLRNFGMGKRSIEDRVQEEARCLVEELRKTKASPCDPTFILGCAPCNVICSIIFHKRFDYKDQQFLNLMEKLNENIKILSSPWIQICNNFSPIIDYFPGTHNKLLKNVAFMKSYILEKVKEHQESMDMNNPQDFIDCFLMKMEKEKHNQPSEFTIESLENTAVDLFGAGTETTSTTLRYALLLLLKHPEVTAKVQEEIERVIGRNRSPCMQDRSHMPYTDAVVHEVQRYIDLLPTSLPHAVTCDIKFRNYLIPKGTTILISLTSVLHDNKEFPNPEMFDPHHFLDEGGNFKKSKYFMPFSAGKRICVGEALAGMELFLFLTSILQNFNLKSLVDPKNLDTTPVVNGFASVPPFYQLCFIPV

Question: With `C[C@]1(C2CCCC2)Cc2cc(OCC(=O)O)c(Cl)c(Cl)c2C1=O` as the compound, how does the AC50 read?
Answer: 39.8 µM (inconclusive)

Question: With `O=C(Nc1ccc(Cl)cc1C(=O)c1ccccc1)c1ccco1` as the compound, how does the AC50 read?
Answer: 3.98 µM (inconclusive)

Question: For `CCC12C=CCN3CCC4(c5cc(Br)c(OC)cc5N(C)C4C(O)(C(=O)OC)C1OC(C)=O)C32` (stereo unspecified), which AC50 is on record?
Answer: 22.4 µM (inconclusive)

Question: With `COc1ccc(NC(=O)CSc2nncn2C)c([N+](=O)[O-])c1` as the compound, how does the AC50 read?
Answer: 14.1 µM (inconclusive)

Question: With `CC1CCCC(NC(=O)C2CCN(S(=O)(=O)N3CCC4(CC3)OCCO4)CC2)C1C` (stereo unspecified) as the compound, how does the AC50 read?
Answer: 39.8 µM (inconclusive)

Question: For `CC(C)Sc1cc(N2CCOCC2)nc(-c2ccc(Cl)cc2)n1`, which AC50 is on record?
Answer: 11.2 µM (inconclusive)

Question: With `Cc1ccc(CCN2CC(C(=O)N3CCC4(CC3)OCCO4)CC2=O)cc1` (stereo unspecified) as the compound, how does the AC50 read?
Answer: 12.6 µM (inconclusive)

molecular target: T1, Streptokinase A (Streptococcus pyogenes serotype M1, UniProt P10520); experiment: S. pyogenes streptokinase expression inhibitors, potency, dose response, plasminogen activation absorbance, OD405 (AID 1914); type: functional, Streptococcus pyogenes M1 GAS; conditions: not given;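 note: secreted streptokinase activity via plasminogen activation per viability signal from cell pellet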
T1 sequence (P10520 whole entry): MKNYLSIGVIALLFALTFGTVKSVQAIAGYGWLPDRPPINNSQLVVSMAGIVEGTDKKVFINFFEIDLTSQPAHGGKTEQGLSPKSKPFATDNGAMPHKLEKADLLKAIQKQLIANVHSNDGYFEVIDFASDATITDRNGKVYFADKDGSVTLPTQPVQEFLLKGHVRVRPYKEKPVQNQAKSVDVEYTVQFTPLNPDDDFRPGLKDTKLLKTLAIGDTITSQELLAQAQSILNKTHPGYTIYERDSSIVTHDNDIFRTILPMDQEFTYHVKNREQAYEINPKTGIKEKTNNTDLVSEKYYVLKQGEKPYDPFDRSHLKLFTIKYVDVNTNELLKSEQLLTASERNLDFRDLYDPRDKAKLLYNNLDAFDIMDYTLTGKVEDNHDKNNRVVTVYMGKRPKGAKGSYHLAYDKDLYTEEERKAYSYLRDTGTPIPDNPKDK

Question: Which EC50 does the source give for `CCCCNC(=O)c1cn(CC(C)C)c(=O)c2c1c1ccccc1n2C` here?
Answer: > 150 µM (not active)

Question: With `CC(C)(C)c1cc(C(=O)Nc2ccc(F)cc2)n(Cc2ccc(F)cc2)n1` as the compound, how does the EC50 read?
Answer: 2.85 µM (active)

Question: Which EC50 does the source give for `COc1ccc(CNCC(O)(c2ccc(Cl)cc2)c2ccc(Cl)cc2)cc1` here?
Answer: 19.7 µM (active)

Question: With `NC(=O)c1cc(C(=O)Cc2ccccc2)c[nH]1` as the compound, how does the EC50 read?
Answer: 107 µM (active)

Question: For `COc1cc(C(=O)NC(=S)Nc2ccc(Cc3ccncc3)cc2)cc(OC)c1OC`, which EC50 is on record?
Answer: > 150 µM (not active)

Question: Which EC50 does the source give for `COc1ccccc1N1CCN(C(=O)/C=C/c2c(Cl)nc3ccccn23)CC1` here?
Answer: > 150 µM (not active)

Question: For `Cc1ccccc1C(=O)Oc1cccc(Nc2ncnc3ccccc23)c1`, which EC50 is on record?
Answer: 34.6 µM (active)

molecular target: T2, Cytochrome P450 1A2 (Homo sapiens, UniProt P05177); conditions: not given;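 note: PubChem cytochrome P450 panel assay, CYP1A2 panel member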
T2 sequence (P05177 whole entry): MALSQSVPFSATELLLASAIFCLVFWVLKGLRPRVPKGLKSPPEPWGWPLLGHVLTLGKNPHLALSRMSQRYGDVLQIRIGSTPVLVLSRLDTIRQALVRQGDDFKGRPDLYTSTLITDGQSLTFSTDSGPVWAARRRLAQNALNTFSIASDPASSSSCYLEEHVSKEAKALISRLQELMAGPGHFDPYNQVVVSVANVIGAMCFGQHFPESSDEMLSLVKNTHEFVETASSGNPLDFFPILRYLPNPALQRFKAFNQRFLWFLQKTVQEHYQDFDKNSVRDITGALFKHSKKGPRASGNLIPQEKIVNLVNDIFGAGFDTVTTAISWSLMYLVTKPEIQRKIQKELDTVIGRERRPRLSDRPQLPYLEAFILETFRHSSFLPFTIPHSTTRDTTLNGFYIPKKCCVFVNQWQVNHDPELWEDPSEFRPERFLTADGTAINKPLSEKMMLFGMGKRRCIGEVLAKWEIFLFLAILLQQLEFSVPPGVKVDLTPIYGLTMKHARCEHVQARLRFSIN

Question: For `Cl/C(=N\c1cccc2ccccc12)N(c1ccccc1)c1ccccc1`, which AC50 is on record?
Answer: 1 µM (inconclusive)

Question: For `CCOc1ccc(-c2nnc3ccc(SCC(=O)NCc4ccco4)nn23)cc1`, which AC50 is on record?
Answer: 15.8 µM (inconclusive)

test system: not listed separately; experiment: Luminescence Cell-Based Dose Retest to Confirm Inhibitors of Cancer Stem Cells. [Related pubchem assays (depositor defined):AID2717, AID2721]; type: functional; conditions: Homo sapiens

Question: Which AC50 does the source give for `COC(=O)c1ccc(CN(c2ccc(C(=O)O)c(O)c2)S(=O)(=O)c2ccc(Cl)c([N+](=O)[O-])c2)cc1` here?
Answer: 4.38 µM (active)

test system: Streptococcus sp. 'group A'; experiment: growth inhibition of control SK(-) GAS strain, dose response, counter-screen for streptokinase expression inhibitor project, luminescence, kanamycin, BacTiterGlo, confirmation (AID 1900); type: functional, organism-based; conditions: not given

Question: With `CCCCNC(=O)c1cn(CC(C)C)c(=O)c2c1c1ccccc1n2C` as the compound, how does the EC50 read?
Answer: 15.5 µM (active)

Question: Which EC50 does the source give for `CC(C)(C)c1cc(C(=O)Nc2ccc(F)cc2)n(Cc2ccc(F)cc2)n1` here?
Answer: 7.02 µM (active)

Question: Which EC50 does the source give for `COc1ccc(CNCC(O)(c2ccc(Cl)cc2)c2ccc(Cl)cc2)cc1` here?
Answer: 3.01 µM (active)

Question: Which EC50 does the source give for `NC(=O)c1cc(C(=O)Cc2ccccc2)c[nH]1` here?
Answer: 2.27 µM (active)

Question: With `COC(=O)c1ccc(CN(c2ccc(C(=O)O)c(O)c2)S(=O)(=O)c2ccc(Cl)c([N+](=O)[O-])c2)cc1` as the compound, how does the EC50 read?
Answer: 1.48 µM (active)

Question: With `COc1cc(C(=O)NC(=S)Nc2ccc(Cc3ccncc3)cc2)cc(OC)c1OC` as the compound, how does the EC50 read?
Answer: 2.84 µM (active)

Question: With `COc1ccccc1N1CCN(C(=O)/C=C/c2c(Cl)nc3ccccn23)CC1` as the compound, how does the EC50 read?
Answer: 1.25 µM (active)

Question: Which EC50 does the source give for `Cc1ccccc1C(=O)Oc1cccc(Nc2ncnc3ccccc23)c1` here?
Answer: 5.76 µM (active)
